The molecules below were run against T1, Aminopeptidase N (Sus scrofa, UniProt P15145) (assay: In vitro inhibiting power on aminopeptidase N (Ala-Na substrate)). Conditions: APN purified from pig's kidney, 200 μM Ala-Na, 37° C., Tris HCl pH 7.4.
T1 construct: Aminopeptidase N purified from pig's kidney; purchased Böehringer Mannheim (Meylan, France); host or cells: pig's kidney
T1 sequence (P15145 1-963): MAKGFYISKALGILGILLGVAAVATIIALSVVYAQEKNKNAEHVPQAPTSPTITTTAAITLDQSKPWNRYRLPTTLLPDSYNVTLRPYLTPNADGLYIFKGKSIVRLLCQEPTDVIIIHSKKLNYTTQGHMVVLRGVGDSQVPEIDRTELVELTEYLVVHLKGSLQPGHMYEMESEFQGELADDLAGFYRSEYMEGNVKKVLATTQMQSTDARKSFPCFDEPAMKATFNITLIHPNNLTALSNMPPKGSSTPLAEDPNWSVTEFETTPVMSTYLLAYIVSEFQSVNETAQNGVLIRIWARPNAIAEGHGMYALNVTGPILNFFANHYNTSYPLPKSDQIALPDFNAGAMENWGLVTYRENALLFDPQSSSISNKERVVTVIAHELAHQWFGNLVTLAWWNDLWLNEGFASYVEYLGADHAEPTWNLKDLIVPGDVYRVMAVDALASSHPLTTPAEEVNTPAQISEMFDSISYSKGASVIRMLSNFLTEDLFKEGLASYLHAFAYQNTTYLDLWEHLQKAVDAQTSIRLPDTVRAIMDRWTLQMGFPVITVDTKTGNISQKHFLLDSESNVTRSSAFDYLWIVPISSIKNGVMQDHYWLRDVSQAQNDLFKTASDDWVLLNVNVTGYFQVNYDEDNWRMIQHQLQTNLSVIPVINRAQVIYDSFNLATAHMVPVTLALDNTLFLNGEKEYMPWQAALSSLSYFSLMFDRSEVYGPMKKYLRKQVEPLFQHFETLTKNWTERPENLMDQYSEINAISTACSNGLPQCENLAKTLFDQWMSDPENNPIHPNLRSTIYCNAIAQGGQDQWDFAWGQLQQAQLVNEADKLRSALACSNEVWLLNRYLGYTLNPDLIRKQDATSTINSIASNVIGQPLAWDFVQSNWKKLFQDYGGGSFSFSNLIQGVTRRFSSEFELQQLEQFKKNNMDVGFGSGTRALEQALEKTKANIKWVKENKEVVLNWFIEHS
Type: biochemical
Description: b)) In vitro study of the inhibiting power of the synthesised compounds on aminopeptidase N.
1°) Source of the Enzyme.
Aminopeptidase N purified from pig's kidney is marketed by Böehringer Mannheim (Meylan, France).
The APN is incubated for 10 min at 37° C. in the absence or in the presence of increasing concentrations of inhibitors in a total volume of 100 μl in Tris HCl buffer (50 mM, pH =7.4. 200 μM of Ala-Na are added and the whole thing is incubated for 30 min at 37° C. The reaction is stopped by the addition of 10 μl of CH3COO—Na 1M (pH=4.2). The absorption is measured at 400 nm and compared with that of a standard range of 2-naphthyiamine.

Row | Ki [µM] | Structure (SMILES)
1 | > 5 | CCC(C)C(NC(=O)C(S)C(N)CCP(=O)(O)O)C(=O)NC(CCC(=O)O)C(=O)O (single isomer, unassigned) [Example 4B]
2 | > 50 | CCC(C)C(NC(=O)C(S)C(N)CCS(=O)(=O)O)C(=O)NC(CCC(=O)O)C(N)=O (single isomer, unassigned) [Example 8B]
3 | > 5 | CC[C@H](C)[C@H](NC(=O)[C@@H](S)[C@H](N)CCC(=O)O)C(=O)N1CC[C@@H](C(=O)O)[C@H]1C(=O)O [Example 3A, [[(2S ,3R)-3-amino-5-carboxy-2-mercapto]pentanoyl]-LIIe-L.(3R)(3-COOH)Pro-OH]

Second part, the molecule before the results:

Row | Structure (SMILES) | Ki [µM]
4 | CCC(C)C(NC(=O)C(S)C(N)CCP(=O)(O)O)C(=O)NC(CCC(=O)O)C(=O)O (single isomer, unassigned) [Example 4A] | > 5
5 | CCC(C)C(NC(=O)C(S)C(N)CCS(=O)(=O)O)C(=O)NC(CCC(=O)O)C(N)=O (single isomer, unassigned) [Example 8A] | > 50
6 | CC[C@H](C)[C@H](NC(=O)[C@H](S)[C@H](N)CCC(=O)O)C(=O)N1CC[C@@H](C(=O)O)[C@H]1C(=O)O [Example 3B, [[(2R,3R), 3-amino-5-carboxy-2-mercapto]-pentanoyl]-L.IIe-L.(3R)(3-COOH)Pro-OH] | > 5

Reference: US20020061840A1, “Tripeptide compounds useful as selective inhibitors of aminopeptidase A and corresponding pharmaceutical compositions” (priority 2000, published 2002)
